How the values were obtained:
[1] = tested on: marrow cells (mononuclear cell fraction); assay: Proliferation-stimulating effect on marrow cell of mouse (3H-TdR uptake); format: cell-based, mouse (BALB/c); details: percentage of control, 72 h; for activity at 1 µg/mL: 10^0 μg/ml; for activity at 0.1 µg/mL: 10^-1 μg/ml; for activity at 0.01 µg/mL: 10^-2 μg/ml; for activity at 0.001 µg/mL: 10^-3 μg/ml
Protocol: Pharmacological Test 1: Proliferation-Stimulating Effect on Marrow Cell of Mouse
Marrow cells were prepared from the thigh bone of a 7 week old female BALB/c mouse purchased from Japan SLC Co., Ltd., and a mononuclear cell fraction (MNF) obtained by fractionation using a lympholyte-M (Cedar Lane, Ontario, Canada) was used in the following experiment.
The concentration of the MNF was adjusted to 1.5×10^6 cells/ml by using 10% FCS RPMI 1640 (Nissui Pharmaceutical Co., Ltd., Tokyo, Japan) as a culture medium. 10 μl/well of a sample with a predetermined concentration and 100 μl/well of the above-prepared MNF were placed on a round-bottomed 96 well plate, and incubated under the conditions of 37° C. and 5% CO2 for 72 hours. Thereafter, 0.5 μCi/well of ^3 H-thymidine (^3 H-TDR) was added. After 8 hour incubation, the cells were harvested, and the amount of the 3H-TdR taken in the nuclei was measured by a liquid scintillation counter.

[2] = Life-span-increasing effect on irradiation of a lethal dose of radiation; format: in vivo, mouse (BDF1); details: 10 mice/group, 9 Gy X-ray, 0.1 mg/kg i.v. days 0, 4, 8
Protocol: Pharmacological Test 4: Life-Span-Increasing Effect on Irradiation of a Lethal Dose of Radiation
An experiment was carried out by using 6 week old female BDF1 mice purchased from Japan SLC Co., Ltd., with 10 mice made one group.
The entire bodies of the entire body of the mice were irradiated with 9 Gy of X-rays by using a Hitachi X-ray irradiator (MBR-1520R), and the day on which the X-ray was irradiated was referred to as "day 0".

[3] = tested on: blood platelets; assay: Thrombocytopenia-inhibiting effect in X-ray-irradiated mice; format: in vivo, mouse (BDF1); details: 10 days after 5 Gy X-ray; 0.1 mg/kg i.v. within 2 h; mean ± SD; vehicle per series 10.3, 6.8, 6.7; non-treatment 68.2, 96.9, 73.0
Protocol: Pharmacological Test 5: Thromboclytopenia-Inhibiting Effect
The thrombocytopenia-inhibiting effect of each sample upon an X-ray-irradiated mouser which is one of models with a decreased number of blood platelets was examined.
An experiment was carried out by using 6 week old female BDF1 mice purchased from Japan SLC Co., Ltd., with 6 mice made one group.
5 Gy of X ray was irradiated to the entire body of the mice by a Hitachi X-ray irradiator CMBR-1520R). Within 2 hours after the irradiation, each sample was administered to the caudal vein of the mice at an amount of 0.1 mg/kg.
(§1) After 10 days, blood was collected from the fundus vein of the mice, and the number of blood platelets was measured by a sequential multi-channel hemocytometer E-2500/cs (Toa Iyo Denshi Kabushiki Kaisha). The number of blood platelets of the non-treated group, that of the medium-administered group, and that of the sample-administered group are shown in Table 5.

[4] = tested on: blood platelets; assay: Blood-platelet-increasing effect upon normal mouse; format: in vivo, mouse (BDF1); details: normal mice; 6 days after 0.1 mg/kg i.v.; mean ± SD; vehicle per series 58.2, 63.0, 71.1
Protocol: Pharmacological Test 6: Blood-Platelet-Increasing Effect upon Mouse
An experiment was carried out by using 6 week old female BDF1 mice purchased from Japan SLC Co., Ltd., with 5 mice made one group.
as §1, with “Each sample was administered to the caudal vein of the mice at a dose of 0.1 mg/kg. After” for “After”, “6” for “10”, “vehicle-administered” for “non-treated group, that of the medium-administered”, “6.” for “5.”

[5] = day 10, controls per series 10, 10, 10, 10, 10, 8
[6] = day 15, controls per series 8, 9, 5, 5, 7, 1
[7] = day 20, controls per series 4, 5, 1, 2, 3, 0
[8] = day 25, controls per series 3, 3, 0, 0, 2, 0
[9] = day 30, controls per series 1, 1, 0, 0, 0, 0

| SMILES | activity at 1 µg/mL [1] [%] | activity at 0.1 µg/mL [1] [%] | activity at 0.01 µg/mL [1] [%] | activity at 0.001 µg/mL [1] [%] | Number of Surviving Mice [2, 5] [mice] | Number of Surviving Mice [2, 6] [mice] | Number of Surviving Mice [2, 7] [mice] | Number of Surviving Mice [2, 8] [mice] | Number of Surviving Mice [2, 9] [mice] | Number of Surviving Mice ([2]; day 35, all controls 0) [mice] | Number of Surviving Mice ([2]; day 40, all controls 0) [mice] | Number of Blood Platelets [3] | Number of Blood Platelets [4] |
| --- | --- | --- | --- | --- | --- | --- | --- | --- | --- | --- | --- | --- | --- |
| CCCCCCCCCCCCCCCCCCCCCCCC(=O)N[C@@H](CO[C@H]1O[C@H](CO)[C@H](O)[C@H](O)[C@H]1O)[C@H](O)[C@H](O)CCCCCCCCCCCC(C)C [Compound 31, (2S,3S,4R)-1-(α-D-galactopyranosyloxy)-16-methyl-2-tetracosanoylamino-3,4-heptadecanediol] | 624 | 326 | 104 | 101 | 10 | 10 | 9 | 9 | 9 | 9 | 9 | 27.7 ± 5.4 × 10^4 /μl | 108.0 ± 7.0 × 10^4 /μl |
| CCCCCCCC/C=C\CCCCCCCC(=O)N[C@@H](CO[C@H]1O[C@H](CO)[C@H](O)[C@H](O)[C@H]1O)[C@H](O)CCCCCCCCCCCCCCC [Compound 29, (2S,3R)-1-(α-D-galactopyranosyloxy)-2-oleoylamino-3-octadecanol] | 865 | 382 | 187 | 97 | 10 | 9 | 8 | 8 | 8 | 8 | 8 | 18.1 ± 5.0 × 10^4 /μl | 86.3 ± 3.1 × 10^4 /μl |
| CCCCCCCCCCCCCCCCCCCCCC[C@@H](O)C(=O)N[C@@H](CO[C@H]1O[C@H](CO)[C@H](O)[C@H](O)[C@H]1O)[C@H](O)[C@H](O)CCCCCCC [Compound 24, (2S,3S,4R)-1-(α-D-galactopyranosyloxy)-2-[(R)-2-hydroxytetracosanoylamino]-3,4-undecanediol] | 576 | 197 | 79 | 77 | 10 | 9 | 9 | 9 | 9 | 9 | 9 | 21.6 ± 7.2 × 10^4 /μl | 102.6 ± 9.9 × 10^4 /μl |
| CCCCCCCCCCCCC/C=C/[C@@H](O)[C@H](CO[C@H]1O[C@H](CO)[C@H](O)[C@H](O)[C@H]1O)NC(=O)CCCCCCCCCCCCCCCCC [Compound 15, (2S,3R,4E)-1-(α-D-galactopyranosyloxy)-2-octadecanoylamino-4-octadecen-3-ol] | 979 | 292 | 101 | 69 | 10 | 9 | 6 | 6 | 6 | 6 | 6 | 17.8 ± 2.4 × 10^4 /μl | 84.7 ± 6.0 × 10^4 /μl |
| CCCCCCCCCCCCCCCCCCCCCCCC(=O)N[C@@H](CO[C@H]1O[C@H](CO)[C@H](O)[C@H](O)[C@H]1O)[C@H](O)CCCCCCCCCCC [Compound 9, (2S,3R)-1-(α-D-galactopyranosyloxy)-2-tetracosanoylamino-3-tetradecanol] | – | 547 | 103 | 134 | 10 | 8 | 6 | 6 | 6 | 6 | 6 | 17.6 ± 3.4 × 10^4 /μl | 100.5 ± 8.3 × 10^4 /μl |
| CCCCCCCCCCCCCCCCCCCCCC[C@H](O)C(=O)N[C@@H](CO[C@H]1O[C@H](CO)[C@H](O)[C@H](O)[C@H]1O)[C@H](O)[C@H](O)CCCCCCCCCCCC(C)C [Compound 30, (2S,3S,4R)-1-(α-D-galactopyranosyloxy)-2-[(S)-2-hydroxytetracosanoylamino]-16-methyl-3,4-heptadecanediol] | 712 | 293 | 105 | 92 | 10 | 10 | 10 | 10 | 10 | 10 | 10 | 22.5 ± 3.5 × 10^4 /μl | 106.2 ± 9.0 × 10^4 /μl |
| CCCCCCCCCCCCCCCCCCCC(=O)N[C@@H](CO[C@H]1O[C@H](CO)[C@H](O)[C@H](O)[C@H]1O)[C@H](O)CCCCCCCCCCCCCCC [Compound 3, (2S,3R)-1-(α-D-galactopyranosyloxy)-2-icosanoylamino-3-octadecanol] | – | 234 | 87 | 84 | 10 | 9 | 8 | 8 | 8 | 8 | 8 | 20.6 ± 4.5 × 10^4 /μl | 102.0 ± 10.8 × 10^4 /μl |
| CCCCCCCCCCCCCCCCCCCCCCCC(=O)N[C@@H](CO[C@H]1O[C@H](CO)[C@H](O)[C@H](O)[C@H]1O)[C@H](O)CCCCCCCCCCCCCCC [Compound 1, (2S,3R)-1-(α-D-galactopyranosyloxy)-2-tetracosanoylamino-3-octadecanol] | – | 465 | 263 | 134 | 10 | 10 | 10 | 9 | 9 | 9 | 9 | 25.4 ± 6.8 × 10^4 /μl | 112.2 ± 6.5 × 10^4 /μl |
| CCCCCCCCCCCCCCC[C@@H](O)[C@H](CO[C@H]1O[C@H](CO)[C@H](O)[C@H](O)[C@H]1O)NC(=O)CCCCCCC [Compound 7, (2S,3R)-1-(α-D-galactopyranosyloxy)-2-octanoylamino-3-octadecanol] | 972 | 631 | 351 | 313 | 10 | 8 | 6 | 5 | 5 | 5 | 5 | 12.3 ± 4.0 × 10^4 /μl | 76.0 ± 5.1 × 10^4 /μl |
